In the test the test system is BDF1 mice, P388 leukemia ip, median survival T/C. Description: NCI In Vivo Anticancer Drug Screen. Data for tumor model P388 Leukemia (intraperitoneal) in B6D2F1 (BDF1) mice. The note with it: endpoint: median survival time, higher = longer survival. In outline:
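T/C = treated-group survival ÷ vehicle-control survival; tumour transplanted into mice before dosing.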

Setting [1] is: dose: 100.0 mg/kg/injection, schedule: Q01DX009 (ip), vehicle: Klucel (hydroxypropylcellulose) (HPC).
Where [2] appears, read: dose: 100.0 mg/kg/injection, schedule: Q04DX003 (ip), vehicle: Klucel (hydroxypropylcellulose) (HPC).
Where [3] appears, read: dose: 200.0 mg/kg/injection, schedule: Q01DX009 (ip), vehicle: Klucel (hydroxypropylcellulose) (HPC).
Where [4] appears, read: dose: 200.0 mg/kg/injection, schedule: Q04DX003 (ip), vehicle: Klucel (hydroxypropylcellulose) (HPC).
Setting [5] is: dose: 400.0 mg/kg/injection, schedule: Q01DX009 (ip), vehicle: Klucel (hydroxypropylcellulose) (HPC).
Where [6] appears, read: dose: 400.0 mg/kg/injection, schedule: Q04DX003 (ip), vehicle: Klucel (hydroxypropylcellulose) (HPC).
Where [7] appears, read: dose: 50.0 mg/kg/injection, schedule: Q01DX009 (ip), vehicle: saline.
Setting [8] is: dose: 100.0 mg/kg/injection, schedule: Q01DX009 (ip), vehicle: saline.
The mark [9] stands for this setting: dose: 200.0 mg/kg/injection, schedule: Q01DX009 (ip), vehicle: saline.
[10] abbreviates: dose: 50.0 mg/kg/injection, schedule: Q01DX009 (ip), vehicle: saline with Tween-80.
Where [11] appears, read: dose: 100.0 mg/kg/injection, schedule: Q01DX009 (ip), vehicle: saline with Tween-80.
Setting [12] is: dose: 200.0 mg/kg/injection, schedule: Q01DX009 (ip), vehicle: saline with Tween-80.
[13] abbreviates: dose: 100.0 mg/kg/injection, schedule: Q04DX003 (ip), vehicle: saline with Tween-80.
[14] abbreviates: dose: 200.0 mg/kg/injection, schedule: Q04DX003 (ip), vehicle: saline with Tween-80.
The mark [15] stands for this setting: dose: 100.0 mg/kg/injection, schedule: Q04DX003 (ip), vehicle: saline.
The mark [16] stands for this setting: dose: 200.0 mg/kg/injection, schedule: Q04DX003 (ip), vehicle: saline.
Where [17] appears, read: dose: 400.0 mg/kg/injection, schedule: Q04DX003 (ip), vehicle: saline.
The mark [18] stands for this setting: dose: 400.0 mg/kg/injection, schedule: Q01DX009 (ip), vehicle: saline with Tween-80.
Where [19] appears, read: dose: 400.0 mg/kg/injection, schedule: Q04DX003 (ip), vehicle: saline with Tween-80.
Setting [20] is: dose: 25.0 mg/kg/injection, schedule: Q01DX009 (ip), vehicle: saline with Tween-80.
Setting [21] is: dose: 400.0 mg/kg/injection, schedule: Q01DX009 (ip), vehicle: saline.

Values joined by “and” are separate entries in the source; they are usually repeats but may differ in a detail not shown here. Equal values may be shown once. Inconclusive results and toxic doses are left out.

Take `CN(C)CCC(=O)c1ccc(Cl)cc1`: the T/C was 96 % of control (dose: 18.8 mg/kg/injection, schedule: Q01DX009 (ip), vehicle: saline with Tween-80); 93 % of control (dose: 37.5 mg/kg/injection, schedule: Q01DX009 (ip), vehicle: saline with Tween-80); 113 % of control (dose: 75.0 mg/kg/injection, schedule: Q01DX009 (ip), vehicle: saline with Tween-80).
Consider `O=[N+]([O-])c1cc(Br)c(N2CCCC2)cc1N1CCCC1`, for which the T/C reads like this: under setting [1], 104 % of control; under setting [2], 100 % of control; under setting [3], 100 % of control; under setting [4], 95 % of control; under setting [5], 100 % of control; under setting [6], 110 % of control.
As to `NN1N=Nc2cccc3cccc1c23`, the T/C reads like this: under setting [7], 105 % of control; under setting [8], 110 % of control; (dose: 110.0 mg/kg/injection, schedule: Q04DX003 (ip), vehicle: saline) 100 % of control; (dose: 170.0 mg/kg/injection, schedule: Q04DX003 (ip), vehicle: saline) 95 % of control; under setting [9], 110 % of control; (dose: 255.0 mg/kg/injection, schedule: Q04DX003 (ip), vehicle: saline) 95 % of control.
As for `COc1ccc2[nH]ccc(=O)c2c1`, the T/C is 102 % of control under setting [10], 96 % of control under setting [11] and 105 % of control under setting [12].
Regarding `CC(C)(C)OC(=O)N1Cc2cc3ccccc3nc2C1`, the T/C runs as follows: (dose: 50.0 mg/kg/injection, schedule: Q04DX003 (ip), vehicle: saline with Tween-80) 100 % of control; under setting [13], 118 % of control; under setting [14], 109 % of control.
As to `CCOC(=O)NCCCNC(=O)OCC`, the T/C is 115 % of control under setting [15], 115 % of control under setting [16] and 105 % of control under setting [17].
With `CC(=O)O[C@H]1CC[C@H]2[C@@H]3[C@H](C)CC4=CC(=O)CCC4[C@H]3CC[C@]12C` (stereo partly specified), the T/C runs as follows: under setting [11], 95 % of control; under setting [13], 100 % of control; under setting [12], 90 % of control; under setting [14], 95 % of control; under setting [18], 100 % of control; under setting [19], 100 % of control.
As for `CC1=CC=CC(C)(Cc2ccc(-c3ccc(CC4(C)C=CC=C(C)C4=O)cc3)cc2)C1=O` (stereo unspecified), the T/C by setting is: (dose: 25.0 mg/kg/injection, schedule: Q01DX001 (ip), vehicle: saline with Tween-80) 95 % of control; (dose: 50.0 mg/kg/injection, schedule: Q01DX001 (ip), vehicle: saline with Tween-80) 95 % of control; (dose: 100.0 mg/kg/injection, schedule: Q01DX001 (ip), vehicle: saline with Tween-80) 90 % of control.
Take `Nc1ncnc2c1cnn2CCCl`: the T/C was 122 % of control under setting [13] and 118 % of control under setting [14].
`O=C1CN(C2CCCCC2)CC(=O)N2C(c3ccccc3)CCCN12` (stereo unspecified): the T/C runs as follows: (dose: 50.0 mg/kg/injection, schedule: Q01DX005 (ip), vehicle: saline with Tween-80) 97 % of control; (dose: 100.0 mg/kg/injection, schedule: Q01DX005 (ip), vehicle: saline with Tween-80) 103 % of control; (dose: 200.0 mg/kg/injection, schedule: Q01DX005 (ip), vehicle: saline with Tween-80) 118 % of control.
On to `CCCCCCCCCCCCCCCC(=O)OCc1cc(=O)c(O)co1`, for which the T/C is 118 % of control under setting [1]; 104 % of control under setting [2]; 109 % of control under setting [3]; 104 % of control under setting [4]; 95 % of control under setting [5]; 113 % of control under setting [6].
For `CSc1ncnc2c1ncn2CCCl`, the T/C under setting [10] was 91 % of control; the T/C under setting [11] is 87 % of control; the T/C under setting [13] is 95 % of control; the T/C under setting [12] was 91 % of control; the T/C under setting [14] was 100 % of control.
Take `CCN(CC)P(=O)(N1CC1C)N1CC1C` (stereo unspecified): the T/C by setting is: (dose: 4.4 mg/kg/injection, schedule: Q01DX009 (ip), vehicle: saline) 109 % of control; (dose: 6.6 mg/kg/injection, schedule: Q01DX009 (ip), vehicle: saline) 109 % of control; (dose: 10.0 mg/kg/injection, schedule: Q01DX009 (ip), vehicle: saline) 104 % of control; (dose: 12.5 mg/kg/injection, schedule: Q04DX003 (ip), vehicle: saline) 116 % of control; (dose: 13.2 mg/kg/injection, schedule: Q01DX009 (ip), vehicle: saline) 118 % of control; (dose: 15.0 mg/kg/injection, schedule: Q01DX009 (ip), vehicle: saline) 113 % of control. Further, the T/C reads like this: (dose: 20.0 mg/kg/injection, schedule: Q01DX009 (ip), vehicle: saline) 157 % of control and 180 % of control; (dose: 25.0 mg/kg/injection, schedule: Q04DX003 (ip), vehicle: saline) 100 % of control; (dose: 30.0 mg/kg/injection, schedule: Q01DX009 (ip), vehicle: saline) 150 % of control; (dose: 33.0 mg/kg/injection, schedule: Q04DX003 (ip), vehicle: saline) 121 % of control; (dose: 45.0 mg/kg/injection, schedule: Q01DX009 (ip), vehicle: saline) 90 % of control; (dose: 50.0 mg/kg/injection, schedule: Q04DX003 (ip), vehicle: saline) 113 % of control. Further, the T/C (dose: 75.0 mg/kg/injection, schedule: Q04DX003 (ip), vehicle: saline) was 169 % of control.
Consider `OCCOCC(F)(F)F`, for which the T/C under setting [20] is 98 % of control; the T/C under setting [10] was 105 % of control; the T/C under setting [11] is 88 % of control and 108 % of control; the T/C under setting [8] is 122 % of control; the T/C under setting [13] was 100 % of control; the T/C under setting [15] is 100 % of control. Besides, the T/C was 122 % of control under setting [9]; 123 % of control under setting [14]; 100 % of control under setting [16]; 111 % of control under setting [21]; 88 % of control under setting [19]; 90 % of control under setting [17].
As for `O=C(O)Cc1ccc(N=Nc2c(O)c(C(=O)O)cc3ccccc23)cc1`, the T/C under setting [2] was 111 % of control, the T/C under setting [4] is 111 % of control and the T/C under setting [6] is 100 % of control.
Regarding `O=C1C=CN(C2OC(CO)C(O)C2O)C(=O)C1` (stereo unspecified), the T/C (dose: 22.0 mg/kg/injection, schedule: Q01DX009 (ip), vehicle: saline) was 103 % of control; the T/C (dose: 33.0 mg/kg/injection, schedule: Q01DX009 (ip), vehicle: saline) was 107 % of control; the T/C under setting [7] is 87 % of control and 101 % of control (2×); the T/C (dose: 75.0 mg/kg/injection, schedule: Q01DX009 (ip), vehicle: saline) is 110 % of control; the T/C under setting [8] was 87 % of control; the T/C under setting [9] is 91 % of control. For the same molecule, the T/C under setting [21] is 100 % of control.
As to `COc1ccc(OC)c(Br)c1`, the T/C was 110 % of control under setting [11]; 100 % of control under setting [13]; 118 % of control (dose: 178.0 mg/kg/injection, schedule: Q01DX009 (ip), vehicle: saline with Tween-80); 120 % of control under setting [12]; 100 % of control under setting [14]; 118 % of control (dose: 266.0 mg/kg/injection, schedule: Q01DX009 (ip), vehicle: saline with Tween-80). The T/C by setting is: under setting [18], 109 % of control; under setting [19], 113 % of control.
In the case of `CC(/C=C/C(O)=C1/C(=O)CNC1=O)=C\[C@@H](C)[C@H]1O[C@@]2(C)O[C@H](C(=O)[C@@H]3O[C@@]32C)[C@@H]1C`, the T/C runs as follows: (dose: 3.13 mg/kg/injection, schedule: Q01DX009 (ip), vehicle: saline with Tween-80) 108 % of control; (dose: 6.25 mg/kg/injection, schedule: Q01DX009 (ip), vehicle: saline with Tween-80) 105 % of control; (dose: 12.5 mg/kg/injection, schedule: Q01DX009 (ip), vehicle: saline with Tween-80) 103 % of control; under setting [20], 100 % of control.

The values are drawn from PubChem BioAssay AID328 (DTP/NCI, 2004).
